These results are taken from patent US20050123514A1, “Increased transduction using ABC transporter substrates and/or inhibitors” (priority 2003, published 2005).

For experiment [1], the system named is CD34+ cells from mobilized peripheral blood. The class given is cell-based, human. The procedure:
(§1) Supernatant was collected repeatedly 24 to 72 hours after transfection, pooled, and then concentrated by ultracentrifugation at 10,000 rpm for 12 hours. Clinical grade vector was packaged similarly in 293F cells under more stringent laboratory conditions. Supernatant was harvested at 24 hours and 36 hours after transfection. The supernatant is filtered through a series of cartridge filters of decreasing pore diameter, then concentrated by ultrafiltration. Benzonase is added by diafiltration to destroy contaminating plasmid and cellular DNA. The material is applied to a Sephacryl-500 gel filtration column then filtered through a 0.22-micron filter.
Cells: Frozen CD34 positive cells (greater than 98% purity) derived from adult bone marrow, adult G-CSF mobilized peripheral blood and cord blood were purchased from AllCells (Berkeley, Calif.). Additional peripheral blood CD34 cells mobilized by cyclophosphamide and GCSF and were generous gifts from Dr. Christian Chabannon.
(§2) Research grade vector transduction with VRX430: CD34+ cells were thawed according to manufacturer's specifications, then cultured at 37° C. for 1 hour. Cells were cultured with an inhibitor at 37° C. for 0 to 90 minutes before addition of vector. MOI 25 to 50 of vector was added to plates coated with 1.5 μg/cm^2 Retronectin (Takara, Japan), then cells were added to the plate and cultured at 37° C.. Twenty-four hours after inhibitor addition, the cells were washed free of vector and drug and were resuspended in fresh medium containing MOI 25 of vector and cultured at 37° C.. CD34+ cells were cultured in IMDM (Invitrogen, Carlsbad, Calif.) supplemented with 1× BIT (Stem Cell Technologies, Vancouver BC) and 25 to 100 ng/ml of TPO, Flt-3L and SCF (R&D Systems, Minneapolis, Minn.). Cells used in in vitro assays were washed free of vector four days after the start of transduction. Cells transplanted into mice were washed free of vector two days after the start of transduction and immediately transplanted into mice.
Cell culture: Four days after transduction CD34 positive cells were washed free of vector and maintained in liquid culture in IMDM plus 1× BIT supplemented with 25 ng/mL TPO, SCF, and Flt-3L, or plated in CFU and LTC-IC assays. Five hundred to 1000 cells were plated in methylcellulose (H3231, Stem Cell Technologies, Vancouver, BC) supplemented with […] and 1 U/mL EPO. Colony growth was scored two weeks after plating and was analyzed by flow cytometry for GFP expression. One to 3×10^5 cells were overlayed upon MS-5 stromal cells for the LTC-IC assay. The cells underwent demidepopulation weekly, in which half of the medium was removed and replaced with fresh medium. The cells collected in each demidepopulation were analyzed by flow cytometry. After 5 weeks, a mix of adherent and non-adherent cells was plated into methylcellulose supplemented as above for formation of secondary CFU. Colonies were scored three weeks after plating and analyzed for GFP expression by flow cytometry.
CD34+ cells isolated from mobilized peripheral blood were cultured short and long term.

For experiment [2], the system named is human CD34 positive cells. In kind it is cell-based. The settings on record: for effect on transduction efficiency (in words): summary statements.
Experiment [3] relates to SCID repopulating cells (SRC). The experiment is described as follows: Secondary transplantation of SRCs in NOD/SCID mice. The class given is in vivo. The procedure: (§3) Mice: NOD.CB17-Prkdcscid/J (formerly known as NOD/LtSz-Prkdcscid/J) mice were purchased from Jackson Laboratories (Bar Harbor, Me.) and housed in microisolatorcages at Bioqual, Inc (Rockville, Md.). All experiments were approved by the ACUC. 6 to 7 week old mice were sublethally irradiated with 350 cGy (^137Cs source), then transplanted the next day with 2×10^5 cord blood CD34+ cells. Mice sacrificed at 6 to 8 weeks were tested for EGFP expression in CD45+, CD34+, CD33+, CD19+ and CD3+ subsets from the bone marrow using PE conjugated antibodies (clones HI30, 581, WM53, HIB19, UCHT1, respectively, Pharmingen, San Diego, Calif.) by flow cytometry (FACSCaliber, Becton Dickinson, Franklin Lakes, N.J.). Mice sacrificed at 14 weeks were analyzed for EGFP expression in the CD45+, CD34+, CD33+, CD19+ and CD3+ subsets in the marrow, spleen and thymus. For secondary transplantation, half of the total marrow recovered from the primary mouse was transplanted into 350 cGy irradiated secondary recipient NOD.CB17-Prkdcscid/J mice. Mice were sacrificed after 8 weeks and analyzed for EGFP expression in the CD45+, CD33+ and CD19 subsets from the bone marrow.
NOD-SCID mice were given a primary transplantation of stem cells isolated from cord blood in the presence of antibody to the murine IL-2 receptor beta chain to inhibit natural killer cell lysis of the transplanted cells. […] Bone marrow was isolated at 14 weeks post transplantation. Total recovered cells (a mixture of human and mouse) were transplanted into naïve NOD/SCID recipient mice at 15-20×10^6 cells per mouse. During secondary transplantation, mice were not given antibody to the murine IL-2 receptor due to inhibitory cost; therefore the percentage engraftment is much lower. Mice were sacrificed at 8 weeks post transplantation, and the percentage of GFP-positive human cells was assessed by flow cytometry (Table 3).

In experiment [4] the test system is Hematopoietic stem cells (hsc). The settings on record: research grade vector. As to the method: as §1
as §2, with “Cells transplanted into mice were washed free of vector two days after the start of transduction and immediately transplanted into mice.” left out
Cell culture: Four days after transduction CD34 positive cells were washed free of vector and maintained in liquid culture in IMDM plus 1× BIT supplemented with 25 ng/mL TPO, SCF, and Flt-3L, or plated in CFU and LTC-IC assays. […] Colony growth was scored two weeks after plating and was analyzed by flow cytometry for GFP expression. […] The cells collected in each demidepopulation were analyzed by flow cytometry. […] Colonies were scored three weeks after plating and analyzed for GFP expression by flow cytometry.

In experiment [5] the test system is SCID repopulating cells (SRC). Kind of experiment: NOD-SCID xenotransplantation of transduced cord blood CD34+ cells (SRC), primary transplant. In kind it is in vivo, NOD-SCID mice. The procedure: as §3
The mark [6] stands for this setting: bone marrow, 8 weeks post secondary transplantation, individual mice, cells transduced + verapamil.

Values joined by “and” are separate entries in the source; they are usually repeats but may differ in a detail not shown here. Equal entries are not always repeated. Where two headings read alike, the source gives them in different places. Where only a bound is given, the exact number is not on record here.

As for `COc1ccc([C@@H]2Sc3ccccc3N(CCN(C)C)C(=O)[C@@H]2OC(C)=O)cc1` [diltiazem], in experiment [1], the “CD34 GFP” value was 19%, the “CFU GFP” value came to 15%, the “LTC GFP” value amounted to 23% and the “Secondary CFU GFP” value was 26%. In experiment [1], the “effect on transduction efficiency (in words)” value (shortened to “effect”) is “significant increase in transduction efficiency”. For the same molecule, in experiment [2], the “effect” value was “increased transduction to levels similar to verapamil”.

Take `COc1ccc(CCN(C)CCCC(C#N)(c2ccc(OC)c(OC)c2)C(C)C)cc1OC` (stereo not drawn) [verapamil]: the “percentage of GFP-positive cells versus transduced without drug” value in experiment [3] (CD45, CD19 and CD33 lineages, secondary transplantation) is “increased percentage of GFP-positive cells”. Also, in experiment [3] (setting [6]), the “% CD45 Engraft.” value was <0.1% and 0.3%; the “% GFP CD19” value was 100% and 98%; the “% GFP CD33” value was 38% and 51%; the “% GFP CD45” value is 59% and 97%. The “copy numbers, increase versus no verapamil” value in experiment [4] (long-term cultures) was 8 fold. The “copy numbers, increase versus no verapamil” value in experiment [4] (short-term cultures) came to 2 fold. In addition, in experiment [4] (with verapamil, both short and long term cultures), the “percentage of transduced cells” value was 70-80%. In experiment [1], the CD34 copy number is 3.2 and the “Secondary CFU GFP” value is reported as 56%. Moreover, the “frequency and distribution of hematopoietic subsets” value in experiment [5] (NOD-SCID mice, cells transduced in verapamil) is “unchanged”. Moreover, in experiment [5] (SRC recovered from the bone marrow of NOD-SCID mice), the “increase in SRC transduction over levels in the absence of verapamil” value is given as “three to four-fold”. In addition, the “GFP expression in repopulating cells” value in experiment [5] (bone marrow and spleen, 14 weeks post-hsc transfer, FIG. 5) is listed as “high percentage of GFP positive repopulating stem cells”. The “GFP expression in human CD45, CD34, CD33, CD19 cells” value in experiment [5] (bone marrow, 6-8 weeks post-hsc transfer, 50 and 75 μg/ml verapamil pooled, FIG. 4) is given as “significantly higher percentage of GFP expressing cells”.

Turning to sodium orthovanadate, the “effect” value in experiment [1] is on record as “reduced efficiency of gene transfer”; in experiment [2] it was “did not increase transduction efficiency”.

For `COC(=O)[C@H]1[C@H]2C[C@@H]3c4[nH]c5cc(OC)ccc5c4CCN3C[C@H]2C[C@@H](OC(=O)c2cc(OC)c(OC)c(OC)c2)[C@@H]1OC` [reserpine], in experiment [1], the “CD34 GFP” value worked out at 3%, the “CFU GFP” value was 5%, the “LTC GFP” value amounted to 5% and the “Secondary CFU GFP” value is reported as 3%. For the same molecule, the “effect” value in experiment [1] was “did not increase transduction efficiency”. Also, the “effect” value in experiment [2] was “did not increase transduction efficiency”.

As for `CCCN(CCC)S(=O)(=O)c1ccc(C(=O)O)cc1` [probenecid], in experiment [1], the “CD34 GFP” value is given as 9%, the “CFU GFP” value was 8%, the “LTC GFP” value turned out to be 11% and the “Secondary CFU GFP” value is given as 4%. For the same molecule, the “effect” value in experiment [1] was “did not increase transduction efficiency”. In experiment [2] (hematopoietic cells), the increase in transduction entry is recorded as “less than 2 fold”.

`CC(C)c1nc(CN(C)C(=O)N[C@H](C(=O)N[C@@H](Cc2ccccc2)C[C@H](O)[C@H](Cc2ccccc2)NC(=O)OCc2cncs2)C(C)C)cs1` [ritonavir]: the “effect” value in experiment [1] is “increased transduction efficiency”. For the same molecule, in experiment [1] (mPB short and long term cultures, ritonavir 5 μM or 20 μM, FIG. 3), the “percentage of GFP-expressing cells compared with diltiazem or verapamil” value is given as “did not increase the percentage of GFP-expressing cells as well as diltiazem or verapamil”.
